Consider 27 compounds from patent US20240335442A1 (Eurofarma Laboratórios S.A., priority 2021, published 2024).

The target in assay [1] is human sodium channel Nav 1.7 (Homo sapiens (Human), UniProt Q15858). The experiment in a line: Automated whole-cell voltage-clamp (ScreenPatch 384P), Nav 1.7 sodium current, Protocol 2. It counts as cell-based. As to conditions: read-out: Nav1.7 IC50. On the procedure:
(§1) Biological assays were performed on Chinese hamster ovary (CHO) cells expressing the human sodium channels Nav 1.8 and Nav 1.7 stably.
(§2) The experimental voltage-clamp protocol using the whole cell configuration was established on the automated ScreenPatch® 384P platform (SP384PE, Nanion Technologies, Livingston, NJ) and recording of the results was performed with a Nanion 384-well Patch Clamp chip (NPC) (Nanion Technologies, Livingston, NJ).
(§3) Compounds of Formula (I), were diluted in eight concentrations in the extracellular solution composed of physiological saline, buffered with HEPES (mM): NaCl, 137; KCl, 4; CaCl2, 3.8; MgCl2, 1; HEPES, 10; Glucose, 10; pH 7.4. The […], 50; CsF, 90; MgCl2, 5; EGTA, 5; HEPES, 10; pH 7.2. The duration of exposure of each compound with the cells expressing Nav 1.7 or Nav 1.8 was at least five minutes and the assays were performed at room temperature.
(§4) The measurements of the sodium currents of Nav 1.8 and Nav 1.7 were obtained using the voltage protocols described below: • Protocol 1: A holding voltage of-90 mV was established followed by a voltage phase of 200 ms to-120 mV, followed by a voltage step of 10 mV for 1 second for Nav 1.8 or 0 mV for Nav 1.7, followed by a step of-100 mV for 20 ms, followed by a step of 20 ms for 10 mV for Nav 1.8 or 0 mV for Nav 1.7 (TP1A) before returning to the holding voltage of-90 mV. • Protocol 2: A holding voltage of-100 mV was established followed by an inactivation voltage step at −40 mV for 8 seconds, followed by a −100 mV step for 20 ms, followed by a 20 ms step for 10 mV for Nav 1.8 or 0 mV for Nav 1.7 (TP1A) before returning to the holding voltage of-100 mV.
(§5) Protocols were repeated at a frequency of 0.1 Hz (Protocol 1) or 0.05 Hz (Protocol 2) and current amplitude was quantified over the TP1A phase log. The variation in the peak amplitude of the current was evaluated according to the Formula described below, after exposure of the cells expressing the channels, at each concentration of the different compounds:
(§6) where ITP1A,basal, and ITP1A,molecule represent the entry peaks of sodium currents into TP1A prior to exposure to the compound and in the presence of the compound, respectively.
(§7) The decrease in peak current amplitude, after exposure of the cells to the compounds, was used to calculate the percent relative blocking of the channels relative to the positive control according to the Formula below: […]
(§8) where % V and % CP represent the averages of the values of current inhibition with a vehicle (DMSO) and positive controls, respectively. The sodium currents of the positive control were considered as 100%.
(§9) where [Test] represents the concentration of the evaluated molecule, IC50 is the concentration of the compound that generates half of the maximum inhibition, N is the Hill's coefficient and % Block′ is the percentage of the sodium channel current (Nav 1.8 and Nav 1.7) inhibited at each concentration of the evaluated molecule. Data were obtained by non linear least squares regression with XL fit for Excel (Microsoft, Redmond, WA).
(§10) Compounds were tested in at least one assay to obtain the IC50 value.

In assay [2] the target is human sodium channel Nav 1.8 (Homo sapiens (Human), UniProt Q9Y5Y9). Put plainly: Automated whole-cell voltage-clamp (ScreenPatch 384P), Nav 1.8 sodium current, Protocol 2. The assay is classed as cell-based. As to conditions: read-out: Nav1.8 IC50. On the procedure:
as §1, §2, §3, §4, §5, §6, §7, §8, §9, §10

Chain of human sodium channel Nav 1.7 (Q15858 whole entry): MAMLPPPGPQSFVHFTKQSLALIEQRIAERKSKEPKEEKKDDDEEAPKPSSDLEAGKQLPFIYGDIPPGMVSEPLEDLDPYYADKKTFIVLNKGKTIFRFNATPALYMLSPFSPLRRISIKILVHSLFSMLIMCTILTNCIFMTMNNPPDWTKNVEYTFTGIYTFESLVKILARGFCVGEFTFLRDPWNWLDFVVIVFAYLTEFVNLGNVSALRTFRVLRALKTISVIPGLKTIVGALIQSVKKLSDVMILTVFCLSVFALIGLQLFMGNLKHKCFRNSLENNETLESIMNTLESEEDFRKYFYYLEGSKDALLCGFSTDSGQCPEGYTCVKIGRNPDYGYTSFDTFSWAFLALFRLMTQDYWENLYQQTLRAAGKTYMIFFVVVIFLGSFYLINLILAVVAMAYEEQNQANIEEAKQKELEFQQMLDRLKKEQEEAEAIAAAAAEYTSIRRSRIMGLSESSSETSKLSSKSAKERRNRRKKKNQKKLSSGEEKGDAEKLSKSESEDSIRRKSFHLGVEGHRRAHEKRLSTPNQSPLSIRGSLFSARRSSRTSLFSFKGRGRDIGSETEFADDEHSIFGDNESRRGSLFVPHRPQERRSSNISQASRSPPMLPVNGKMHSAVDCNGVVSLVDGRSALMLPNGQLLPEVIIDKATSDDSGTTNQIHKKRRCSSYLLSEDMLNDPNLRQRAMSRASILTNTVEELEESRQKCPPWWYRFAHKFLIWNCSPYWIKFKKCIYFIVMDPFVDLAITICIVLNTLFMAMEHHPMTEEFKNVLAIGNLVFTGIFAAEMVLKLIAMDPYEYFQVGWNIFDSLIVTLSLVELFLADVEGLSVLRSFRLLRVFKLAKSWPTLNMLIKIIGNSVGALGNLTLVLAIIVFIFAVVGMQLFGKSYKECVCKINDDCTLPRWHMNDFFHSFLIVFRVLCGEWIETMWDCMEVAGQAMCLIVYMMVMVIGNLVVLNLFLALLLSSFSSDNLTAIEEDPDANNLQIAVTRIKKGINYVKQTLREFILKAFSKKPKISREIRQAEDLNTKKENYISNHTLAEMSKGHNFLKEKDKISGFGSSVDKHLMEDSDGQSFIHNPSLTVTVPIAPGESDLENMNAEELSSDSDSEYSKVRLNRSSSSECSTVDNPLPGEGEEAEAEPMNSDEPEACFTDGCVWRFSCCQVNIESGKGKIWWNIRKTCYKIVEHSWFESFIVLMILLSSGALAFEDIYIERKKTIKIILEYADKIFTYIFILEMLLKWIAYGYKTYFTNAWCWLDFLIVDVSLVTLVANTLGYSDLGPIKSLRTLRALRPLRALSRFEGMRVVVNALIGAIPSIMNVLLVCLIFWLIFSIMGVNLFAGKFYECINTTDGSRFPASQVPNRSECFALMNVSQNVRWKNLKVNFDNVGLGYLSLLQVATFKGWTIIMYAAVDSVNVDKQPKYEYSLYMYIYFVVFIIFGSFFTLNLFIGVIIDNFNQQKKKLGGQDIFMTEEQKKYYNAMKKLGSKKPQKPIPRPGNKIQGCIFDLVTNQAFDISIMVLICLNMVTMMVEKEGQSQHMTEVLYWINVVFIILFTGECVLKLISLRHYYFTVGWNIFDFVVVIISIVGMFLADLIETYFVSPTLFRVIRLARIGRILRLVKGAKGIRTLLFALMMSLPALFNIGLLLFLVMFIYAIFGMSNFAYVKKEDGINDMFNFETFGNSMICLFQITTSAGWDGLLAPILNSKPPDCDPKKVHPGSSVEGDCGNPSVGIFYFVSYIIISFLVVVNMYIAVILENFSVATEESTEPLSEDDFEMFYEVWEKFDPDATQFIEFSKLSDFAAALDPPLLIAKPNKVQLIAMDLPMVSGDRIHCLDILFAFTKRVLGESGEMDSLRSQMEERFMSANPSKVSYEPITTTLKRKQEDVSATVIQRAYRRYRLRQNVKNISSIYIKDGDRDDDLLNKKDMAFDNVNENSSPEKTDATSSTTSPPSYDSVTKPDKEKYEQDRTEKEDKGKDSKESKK
Chain of human sodium channel Nav 1.8 (Q9Y5Y9 whole entry): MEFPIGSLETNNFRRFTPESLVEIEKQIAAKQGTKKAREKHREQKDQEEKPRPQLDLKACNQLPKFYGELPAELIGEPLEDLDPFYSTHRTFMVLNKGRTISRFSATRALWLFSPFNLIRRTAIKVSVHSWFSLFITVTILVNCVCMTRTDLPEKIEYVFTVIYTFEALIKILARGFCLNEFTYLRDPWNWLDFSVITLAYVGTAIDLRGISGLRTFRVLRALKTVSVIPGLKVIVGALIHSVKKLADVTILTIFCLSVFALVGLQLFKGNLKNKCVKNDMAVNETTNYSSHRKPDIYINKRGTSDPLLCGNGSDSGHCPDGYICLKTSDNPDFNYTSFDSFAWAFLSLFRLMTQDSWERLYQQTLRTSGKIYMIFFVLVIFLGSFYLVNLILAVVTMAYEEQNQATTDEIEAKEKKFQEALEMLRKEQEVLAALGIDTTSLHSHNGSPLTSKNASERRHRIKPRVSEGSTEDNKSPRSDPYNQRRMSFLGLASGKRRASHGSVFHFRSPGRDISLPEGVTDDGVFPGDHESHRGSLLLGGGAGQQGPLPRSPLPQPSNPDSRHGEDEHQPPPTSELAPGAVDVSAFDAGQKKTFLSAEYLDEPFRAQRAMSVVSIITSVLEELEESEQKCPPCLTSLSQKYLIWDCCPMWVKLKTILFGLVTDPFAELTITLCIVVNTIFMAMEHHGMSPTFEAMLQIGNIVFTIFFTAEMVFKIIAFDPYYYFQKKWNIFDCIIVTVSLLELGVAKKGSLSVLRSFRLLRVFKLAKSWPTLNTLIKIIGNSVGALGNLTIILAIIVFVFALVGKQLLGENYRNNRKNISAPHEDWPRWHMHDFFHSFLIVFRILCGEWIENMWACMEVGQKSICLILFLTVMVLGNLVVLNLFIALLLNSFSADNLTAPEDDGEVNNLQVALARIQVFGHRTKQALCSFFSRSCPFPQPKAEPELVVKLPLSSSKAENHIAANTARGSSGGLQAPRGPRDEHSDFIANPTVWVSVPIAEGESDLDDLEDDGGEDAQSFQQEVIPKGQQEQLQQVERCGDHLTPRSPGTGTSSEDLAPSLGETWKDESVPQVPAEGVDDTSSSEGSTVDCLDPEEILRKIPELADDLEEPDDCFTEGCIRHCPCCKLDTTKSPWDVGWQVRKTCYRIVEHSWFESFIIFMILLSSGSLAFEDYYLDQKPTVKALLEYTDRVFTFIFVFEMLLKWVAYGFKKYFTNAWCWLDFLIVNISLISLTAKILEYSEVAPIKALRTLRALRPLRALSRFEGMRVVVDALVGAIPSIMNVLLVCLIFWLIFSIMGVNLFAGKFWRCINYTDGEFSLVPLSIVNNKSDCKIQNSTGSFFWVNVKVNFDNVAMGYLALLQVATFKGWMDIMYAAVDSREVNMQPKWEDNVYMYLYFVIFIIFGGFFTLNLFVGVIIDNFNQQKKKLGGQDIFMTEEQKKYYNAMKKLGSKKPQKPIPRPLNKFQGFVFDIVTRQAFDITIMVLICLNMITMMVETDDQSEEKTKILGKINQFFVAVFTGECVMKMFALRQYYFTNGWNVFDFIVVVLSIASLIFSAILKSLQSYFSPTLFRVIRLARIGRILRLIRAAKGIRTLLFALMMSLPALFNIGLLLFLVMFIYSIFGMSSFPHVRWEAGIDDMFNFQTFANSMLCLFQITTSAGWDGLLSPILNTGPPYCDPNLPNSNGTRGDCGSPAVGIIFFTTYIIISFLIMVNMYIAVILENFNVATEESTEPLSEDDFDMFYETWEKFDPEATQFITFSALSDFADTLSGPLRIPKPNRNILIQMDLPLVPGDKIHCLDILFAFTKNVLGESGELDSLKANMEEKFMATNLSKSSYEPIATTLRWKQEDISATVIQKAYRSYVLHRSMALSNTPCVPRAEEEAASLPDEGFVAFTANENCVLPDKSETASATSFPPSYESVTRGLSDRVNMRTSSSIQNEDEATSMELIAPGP

On to `COc1ccc(-c2cncc(C(=O)N/N=C/c3ccc(OC)c(OC)c3OC)n2)cc1` [Compound 82, (E)-6-(4-methoxyphenyl)-N′-(2,3,4-trimethoxybenzylidene)pyrazine-2-carbohydrazide], for which the half-inhibitory concentration (IC50) in assay [1] is 2770 nM; in assay [2] it was over 1000 nM.
For `CCCCOc1ccc(-c2cncc(C(=O)N/N=C/c3cc(OC)cc(OC)c3)n2)cc1` [Compound 83] the same measures were 135 nM and 103 nM.
Turning to `CCCCOc1ccc(-c2cncc(C(=O)N/N=C/c3cc(C)cc(C)c3)n2)cc1` [Compound 84, (E)-6-(4-butoxyphenyl)-N′-(3,5-dimethylbenzylidene)pyrazine-2-carbohydrazide], the IC50 came out at 179 nM in assay [1] and 152 nM in assay [2].
As to `COc1cc(/C=N/NC(=O)c2cncc(-c3ccc(OCC(C)C)cc3)n2)cc(OC)c1` [Compound 85, (E)-N′-(3,5-dimethoxybenzylidene)-6-(4-isobutoxyphenyl)pyrazine-2-carbohydrazide], the IC50 in assay [1] is 159 nM; in assay [2] it was 31.8 nM.
For the compound `Cc1cc(C)cc(/C=N/NC(=O)c2cncc(-c3ccc(OCC(C)C)cc3)n2)c1` [Compound 86, (E)-N′-(3,5-dimethylbenzylidene)-6-(4-isobutoxyphenyl)pyrazine-2-carbohydrazide], the values for the IC50 in assay [1] and in assay [2] were 141 nM and 209 nM, respectively.
For `COc1cc(/C=N/NC(=O)c2cncc(-c3ccc(OC(C)(C)C)cc3)n2)cc(OC)c1` [Compound 87, (E)-6-(4-(tert-butoxy)phenyl)-N′-(3,5-dimethoxybenzylidene)pyrazine-2-carbohydrazide] the same measures were 264 nM and 447 nM.
For `COc1cc(/C=N/NC(=O)c2cncc(-c3ccc(OC4CC4)cc3)n2)cc(OC)c1` [Compound 88, (E)-6-(4-cyclopropoxyphenyl)-N′-(3,5-dimethoxybenzylidene)pyrazine-2-carbohydrazide] the same measures were 70.4 nM and 42.6 nM.
The corresponding values for `COc1cc(/C=N/NC(=O)c2cncc(-c3ccc(OC4CCCCC4)cc3)n2)cc(OC)c1` [Compound 89, (E)-6-(4-(cyclohexyloxy)phenyl)-N′-(3,5-dimethoxybenzylidene)pyrazine-2-carbohydrazide] are 212 nM and 149 nM.
`COc1ccc(-c2nccnc2C(=O)N/N=C/c2cc(OC)cc(OC)c2)cc1` [Compound 90, (E)-N′-(3,5-dimethoxybenzylidene)-3-(4-methoxyphenyl)pyrazine-2-carbohydrazide]: the half-maximal inhibitory concentration (IC50) in assay [1] is over 10000 nM; in assay [2], over 1000 nM.
Consider `COc1ccc(-c2cnc(C(=O)N/N=C/c3cc(OC)cc(OC)c3)cn2)cc1` [Compound 91, (E)-N′-(3,5-dimethoxybenzylidene)-5-(4-methoxyphenyl)pyrazine-2-carbohydrazide], for which the IC50 in assay [1] was over 10000 nM; in assay [2], over 1000 nM.
For `COc1cc(/C=N/NC(=O)c2cncc(-c3ccc(F)cc3)n2)cc(OC)c1` [Compound 92, (E)-N′-(3,5-dimethoxybenzylidene)-6-(4-fluorophenyl)pyrazine-2-carbohydrazide] the same measures were over 10000 nM and over 1000 nM.
The corresponding values for `COc1cc(/C=N/NC(=O)c2cncc(-c3cccc(Cl)c3)n2)cc(OC)c1` [Compound 93, (E)-6-(3-chlorophenyl)-N′-(3,5-dimethoxybenzylidene)pyrazine-2-carbohydrazide] are over 10000 nM and over 1000 nM.
The corresponding values for `COc1cc(/C=N/NC(=O)c2cncc(-c3cccc(F)c3)n2)cc(OC)c1` [Compound 94, (E)-N′-(3,5-dimethoxybenzylidene)-6-(3-fluorophenyl)pyrazine-2-carbohydrazide] are over 10000 nM and over 1000 nM.
As for `COc1cc(/C=N/NC(=O)c2cncc(-c3ccccc3Cl)n2)cc(OC)c1` [Compound 95, (E)-6-(2-chlorophenyl)-N′-(3,5-dimethoxybenzylidene)pyrazine-2-carbohydrazide], the IC50 in assay [1] is over 10000 nM; in assay [2] it was over 1000 nM.
The corresponding values for `COc1cc(/C=N/NC(=O)c2cncc(-c3ccc(C)cc3)n2)cc(OC)c1` [Compound 96, (E)-N′-(3,5-dimethoxybenzylidene)-6-(p-tolyl)pyrazine-2-carbohydrazide] are over 10000 nM and 887 nM.
The corresponding values for `COc1cc(/C=N/NC(=O)c2cncc(-c3ccccc3)n2)cc(OC)c1` [Compound 97, (E)-N′-(3,5-dimethoxybenzylidene)-6-phenylpyrazine-2-carbohydrazide] are over 10000 nM and 394 nM.
Consider `COc1cc(/C=N/NC(=O)c2cncc(-c3ccccc3F)n2)cc(OC)c1` [Compound 98, (E)-N′-(3,5-dimethoxybenzylidene)-6-(2-fluorophenyl)pyrazine-2-carbohydrazide], for which the IC50 in assay [1] is over 10000 nM; in assay [2], over 1000 nM.
In the case of `COc1cc(/C=N/NC(=O)c2cncc(-c3ccccc3OC)n2)cc(OC)c1` [Compound 102, (E)-N′-(3,5-dimethoxybenzylidene)-6-(2-methoxyphenyl)pyrazine-2-carbohydrazide], the IC50 in assay [1] was over 10000 nM; in assay [2], 459 nM.
For `COc1cc(/C=N/NC(=O)c2cncc(-c3ccncc3)n2)cc(OC)c1` [Compound 103, (E)-N′-(3,5-dimethoxybenzylidene)-6-(pyridin-4-yl)pyrazine-2-carbohydrazide] the same measures were over 10000 nM and over 1000 nM.
For `COc1cc(/C=N/NC(=O)c2cncc(-c3cccnc3)n2)cc(OC)c1` [Compound 104, (E)-N′-(3,5-dimethoxybenzylidene)-6-(pyridin-3-yl)pyrazine-2-carbohydrazide] the same measures were over 10000 nM and over 1000 nM.
Take `CCOc1ccc(-c2cncc(C(=O)N/N=C/c3cc(F)cc(OC)c3)n2)c(OC)c1` [Compound 105, (E)-6-(4-ethoxy-2-methoxypehnyl)-N′-(3-fluoro-5-methoxybenzylidene)pyrazine-2-carbohydrazide]: the values for the IC50 in assay [1] and in assay [2] were 44.6 nM and 33.7 nM, respectively.
As for `CCCOc1cc(/C=N/NC(=O)c2cncc(-c3ccc(OCC)cc3OC)n2)cc(OC)c1` [Compound 106, (E)-6-(4-ethoxy-2-methoxyphenyl)-N′-(3-methoxy-5-propoxybenzylidene)pyrazine-2-carbohydrazide], the IC50 in assay [1] is 83 nM; in assay [2], 90.2 nM.
For `CCOc1ccc(-c2cncc(C(=O)N/N=C/c3cc(OC)c(F)c(OC)c3)n2)c(OC)c1` [Compound 107, (E)-6-(4-ethoxy-2-methoxyphenyl)-N′-(4-fluoro-3,5-dimethoxybenzylidene)pyrazine-2-carbohydrazide] the same measures were 5160 nM and 1000 nM.
For `CCOc1ccc(-c2cncc(C(=O)N/N=C/c3cccc(OC)c3)n2)c(OC)c1` [Compound 108, (E)-6-(4-ethoxy-2-methoxyphenyl)-N′-(3-methoxybenzylidene)pyrazine-2-carbohydrazide] the same measures were 30.8 nM and 17.7 nM.
The corresponding values for `COc1cc(/C=N/NC(=O)c2cncc(-c3ccc(OC)cc3C)n2)cc(OC)c1` [Compound 109, (E)-N′-(3,5-dimethoxybenzylidene)-6-(4-methoxy-2-methylphenyl)pyrazine-2-carbohydrazide] are 566 nM and 149 nM.
As for `CCOc1ccc(-c2cncc(C(=O)N/N=C/c3cccc(OC)c3)n2)c(Cl)c1` [Compound 111, (E)-6-(2-chloro-4-ethoxyphenyl)-N′-(3-methoxybenzylidene)pyrazine-2-carbohydrazide], the IC50 stood at 541 nM in assay [1] and 119 nM in assay [2].
As to `COc1cc(/C=N/NC(=O)c2cncc(-c3ccc(OC)cc3OC(F)(F)F)n2)cc(OC)c1` [Compound 112], the results for the IC50 in assay [1] and in assay [2] were 2350 nM and 966 nM, respectively.

The term IC50 denotes the midpoint of a concentration-inhibition curve.
